# Laboratory results taken from ChEMBL document CHEMBL1201862, “PubChem BioAssay data set” (2004).
# Active and inactive are the calls of the source.
# Tests used:
# Protein Tat = biological target: T1, Protein Tat (Human immunodeficiency virus type 1 group M subtype B (isolate HXB2)(HIV-1), UniProt P04608); assay type: functional;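 also: tat binding to TAR RNA read out by fluorescence polarization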
# T1 sequence (P04608 whole entry): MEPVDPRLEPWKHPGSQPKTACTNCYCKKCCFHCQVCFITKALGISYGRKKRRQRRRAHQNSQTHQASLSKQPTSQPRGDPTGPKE
# [1] = THP-1 cell cytotoxicity, dose response, cytotoxicity control for Vif-APOBEC3G degradation inhibitor project, THP-1 cells (AID 1117359); assay type: functional; conditions: Human immunodeficiency virus 1, THP-1
# [2] = biological target: Eukaryotic translation initiation factor 4E (Mus musculus, UniProt P63073); assay: eIF4E–eIF4G protein interaction inhibitors, dose response, biochemical, TR-FRET (AID 855); assay type: functional;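 also: potency for disrupting eIF4E binding to eIF4GI seen as loss of FRET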
# Eukaryotic translation initiation factor 4E, sequence (P63073 whole entry): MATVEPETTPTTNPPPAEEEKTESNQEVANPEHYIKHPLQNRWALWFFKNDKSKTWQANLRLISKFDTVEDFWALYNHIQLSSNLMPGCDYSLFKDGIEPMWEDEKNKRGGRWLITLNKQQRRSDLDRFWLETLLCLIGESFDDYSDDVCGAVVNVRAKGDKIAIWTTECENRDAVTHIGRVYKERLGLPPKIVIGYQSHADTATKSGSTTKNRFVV
# [3] = Shn3 3'UTR reporter inhibitors, dose response, cell-based, Clone20 osteoblasts, firefly luciferase, cherry-picked (AID 624132); assay type: functional;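 also: firefly luciferase luminescence from reporter carrying the Shn3 3'UTR in osteoblasts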
# INS1 = assay: beta cell apoptosis inhibitors, cytokine rescue, dose response, luminescence, retest (AID 449756); assay type: functional, cell-based; conditions: Rattus norvegicus;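 also: cell death triggered by IL-1 beta plus TNF-alpha plus IFN-gamma mixture; protective hits raise ATP signal compared with cytokine alone wells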
# [4] = HepG2 cell cytotoxicity, dose response, cytotoxicity control for Shn3 inhibitor project, CellTiter-Glo, cherry-picked (AID 624134); assay type: functional, cell-based
# [5] = cytotoxicity in HEK-293T cells, dose response, cytotoxicity control for BCR NF-kB inhibitor project, luminescence, B-cell screen hits (AID 489021); assay type: functional, cell-based;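 also: HEK-293T cells carrying an NF-kB luciferase reporter; cells exposed to compound for about 14 hours before viability readout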
# [6] = control 3'UTR Renilla luciferase suppression, dose response, counter-screen for Shn3 inhibitor project, cell-based, Clone20-Shn3RL, cherry-picked (AID 624133); assay type: functional
# [7] = biological target: Peroxisome proliferator-activated receptor gamma/Nuclear receptor coactivator 3 (Homo sapiens, UniProt P37231); assay: TR-FRET dose response biochemical High Throughput Screening assay for agonists of the steroid receptor coactivator 3 (SRC-3) recruitment by the peroxisome proliferator-activated receptor gamma (PPAR gamma): non-selective agonists. [Related pubchem assays: 1301 (Confirmation screen.), 1048 (Primary screen.)]; assay type: functional
# [8] = biological target: Peroxisome proliferator-activated receptor gamma/Nuclear receptor coactivator 1 (Homo sapiens, UniProt P37231); assay: TR-FRET dose response biochemical High Throughput Screening assay for agonists of the steroid receptor coactivator 1 (SRC-1) recruitment by the peroxisome proliferator-activated receptor gamma (PPAR gamma): non-selective agonists. [Related pubchem assays (depositor defined):AID1300, AID1808, AID504735, AID631]; assay type: protein assay
# Peroxisome proliferator-activated receptor gamma/Nuclear receptor coactivator 1, sequence (P37231 whole entry): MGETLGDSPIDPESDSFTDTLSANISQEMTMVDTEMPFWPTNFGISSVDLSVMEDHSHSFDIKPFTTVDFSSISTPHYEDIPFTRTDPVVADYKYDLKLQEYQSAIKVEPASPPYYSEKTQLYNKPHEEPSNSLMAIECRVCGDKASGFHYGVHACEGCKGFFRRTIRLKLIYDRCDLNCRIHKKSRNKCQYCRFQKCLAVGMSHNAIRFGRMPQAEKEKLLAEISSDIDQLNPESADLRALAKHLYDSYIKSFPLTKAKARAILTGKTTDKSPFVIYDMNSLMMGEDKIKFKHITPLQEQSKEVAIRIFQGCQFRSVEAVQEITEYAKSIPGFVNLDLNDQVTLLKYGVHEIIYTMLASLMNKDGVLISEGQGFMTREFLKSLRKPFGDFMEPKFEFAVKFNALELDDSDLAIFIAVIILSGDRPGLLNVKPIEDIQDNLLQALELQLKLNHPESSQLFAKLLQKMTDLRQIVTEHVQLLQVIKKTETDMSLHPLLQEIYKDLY
# Peroxisome proliferator-activated receptor gamma/Nuclear receptor coactivator 1, sequence (Q15788 whole entry, further chain): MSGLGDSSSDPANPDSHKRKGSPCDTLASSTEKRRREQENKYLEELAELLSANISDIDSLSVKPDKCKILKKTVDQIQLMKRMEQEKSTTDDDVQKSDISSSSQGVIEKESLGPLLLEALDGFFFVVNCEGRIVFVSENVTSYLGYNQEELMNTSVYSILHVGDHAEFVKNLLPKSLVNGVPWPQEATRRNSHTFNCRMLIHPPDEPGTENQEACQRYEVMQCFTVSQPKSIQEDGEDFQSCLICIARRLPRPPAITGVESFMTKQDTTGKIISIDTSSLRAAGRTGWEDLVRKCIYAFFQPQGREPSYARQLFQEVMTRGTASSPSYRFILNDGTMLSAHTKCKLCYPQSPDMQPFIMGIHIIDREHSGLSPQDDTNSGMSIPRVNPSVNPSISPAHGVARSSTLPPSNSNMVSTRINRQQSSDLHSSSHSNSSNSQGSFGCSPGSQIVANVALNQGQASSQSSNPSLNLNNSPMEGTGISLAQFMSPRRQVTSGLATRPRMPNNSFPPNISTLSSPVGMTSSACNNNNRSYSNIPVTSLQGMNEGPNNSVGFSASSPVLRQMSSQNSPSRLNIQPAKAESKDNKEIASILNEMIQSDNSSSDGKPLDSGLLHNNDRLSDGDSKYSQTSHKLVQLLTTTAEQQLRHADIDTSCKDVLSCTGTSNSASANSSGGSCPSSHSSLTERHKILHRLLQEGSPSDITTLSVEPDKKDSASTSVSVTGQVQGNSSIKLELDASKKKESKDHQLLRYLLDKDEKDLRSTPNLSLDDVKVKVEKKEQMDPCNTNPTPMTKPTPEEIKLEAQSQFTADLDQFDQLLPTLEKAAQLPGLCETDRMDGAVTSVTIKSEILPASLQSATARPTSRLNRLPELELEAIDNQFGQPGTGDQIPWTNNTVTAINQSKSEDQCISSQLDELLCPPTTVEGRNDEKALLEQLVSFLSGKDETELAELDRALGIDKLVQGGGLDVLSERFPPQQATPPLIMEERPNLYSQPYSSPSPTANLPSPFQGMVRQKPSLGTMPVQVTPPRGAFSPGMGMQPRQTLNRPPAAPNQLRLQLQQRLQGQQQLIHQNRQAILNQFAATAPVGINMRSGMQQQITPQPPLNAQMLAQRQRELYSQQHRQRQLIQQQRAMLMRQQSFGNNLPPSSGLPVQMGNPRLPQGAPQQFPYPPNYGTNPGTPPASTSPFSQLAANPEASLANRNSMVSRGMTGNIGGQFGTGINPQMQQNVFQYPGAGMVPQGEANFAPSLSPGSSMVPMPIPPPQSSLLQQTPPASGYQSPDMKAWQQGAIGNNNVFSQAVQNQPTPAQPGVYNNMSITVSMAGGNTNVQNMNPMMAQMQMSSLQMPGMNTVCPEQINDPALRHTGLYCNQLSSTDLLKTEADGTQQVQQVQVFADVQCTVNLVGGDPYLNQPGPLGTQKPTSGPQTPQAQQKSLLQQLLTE
# [9] = biological target: Peroxisome proliferator-activated receptor gamma/Nuclear receptor coactivator 2 (Homo sapiens, UniProt P37231); assay: TR-FRET dose response biochemical High Throughput Screening assay for agonists of the steroid receptor coactivator 2 (SRC-2) recruitment by the peroxisome proliferator-activated receptor gamma (PPAR gamma): non-selective agonists. [Related pubchem assays: 1297, 1032 ]; assay type: functional
# Peroxisome proliferator-activated receptor gamma/Nuclear receptor coactivator 2, sequence (P37231 whole entry, the tested form may be a part): as the sequence (P37231 whole entry) above
# Peroxisome proliferator-activated receptor gamma/Nuclear receptor coactivator 2, sequence (Q15596 whole entry, further chain, the tested form may be a part): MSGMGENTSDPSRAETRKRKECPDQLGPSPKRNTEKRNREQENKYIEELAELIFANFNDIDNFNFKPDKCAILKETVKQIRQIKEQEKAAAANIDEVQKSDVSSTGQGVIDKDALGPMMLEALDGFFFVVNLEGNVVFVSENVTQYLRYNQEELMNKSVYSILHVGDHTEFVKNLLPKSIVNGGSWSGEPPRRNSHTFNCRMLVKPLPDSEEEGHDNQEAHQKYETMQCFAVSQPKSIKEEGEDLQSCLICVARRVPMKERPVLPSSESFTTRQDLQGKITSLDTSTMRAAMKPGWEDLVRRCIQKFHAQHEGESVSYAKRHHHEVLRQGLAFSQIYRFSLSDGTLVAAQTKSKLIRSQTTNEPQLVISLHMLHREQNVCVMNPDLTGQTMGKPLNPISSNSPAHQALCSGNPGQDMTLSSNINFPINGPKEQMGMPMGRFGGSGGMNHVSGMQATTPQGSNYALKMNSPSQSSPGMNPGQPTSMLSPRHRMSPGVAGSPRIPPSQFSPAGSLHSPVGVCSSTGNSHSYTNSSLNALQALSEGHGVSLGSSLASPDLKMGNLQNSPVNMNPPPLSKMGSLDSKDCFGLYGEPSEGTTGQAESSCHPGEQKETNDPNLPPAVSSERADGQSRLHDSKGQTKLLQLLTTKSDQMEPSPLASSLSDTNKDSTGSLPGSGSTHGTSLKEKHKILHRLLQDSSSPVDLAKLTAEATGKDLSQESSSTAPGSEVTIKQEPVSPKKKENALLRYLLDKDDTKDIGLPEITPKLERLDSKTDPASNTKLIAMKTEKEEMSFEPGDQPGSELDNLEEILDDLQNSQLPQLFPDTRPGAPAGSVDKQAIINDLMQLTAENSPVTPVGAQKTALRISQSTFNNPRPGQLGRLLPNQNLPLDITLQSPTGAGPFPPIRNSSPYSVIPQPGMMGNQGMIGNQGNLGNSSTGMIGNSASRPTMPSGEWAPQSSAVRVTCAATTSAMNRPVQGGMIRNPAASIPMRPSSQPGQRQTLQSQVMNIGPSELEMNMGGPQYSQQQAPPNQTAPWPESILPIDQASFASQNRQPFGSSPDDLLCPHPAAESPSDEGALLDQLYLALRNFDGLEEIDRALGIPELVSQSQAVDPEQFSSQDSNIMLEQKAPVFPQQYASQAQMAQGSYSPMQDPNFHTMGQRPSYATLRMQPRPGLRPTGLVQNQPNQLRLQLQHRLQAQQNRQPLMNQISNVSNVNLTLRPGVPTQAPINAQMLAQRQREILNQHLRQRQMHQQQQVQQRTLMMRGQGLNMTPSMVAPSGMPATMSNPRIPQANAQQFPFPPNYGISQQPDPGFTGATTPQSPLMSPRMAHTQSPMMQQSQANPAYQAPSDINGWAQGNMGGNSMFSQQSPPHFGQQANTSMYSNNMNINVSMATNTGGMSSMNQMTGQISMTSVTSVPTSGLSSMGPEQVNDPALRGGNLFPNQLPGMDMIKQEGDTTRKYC
# Fatty acid synthase [10] = biological target: T2, Fatty acid synthase (Homo sapiens, UniProt P49327); assay: FAS thioesterase domain inhibitors, dose response, biochemical, endpoint fluorescence intensity, uHTS hits (AID 624327); assay type: functional;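 also: fluorescence from hydrolysis of an O-methyl fluorescein acyl ester substrate by the enzyme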
# Fatty acid synthase [11] = biological target: T2, Fatty acid synthase; assay: FAS thioesterase domain inhibitors, dose response, biochemical, kinetic fluorescence intensity (AID 624326); assay type: functional;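 also: rate of fluorescence rise from hydrolysis of a fluorogenic O-methyl fluorescein ester substrate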
# [12] = biological target: T3, Endoribonuclease toxin MazF (Escherichia coli K-12, UniProt P0AE70); assay: MazF toxin RNase activators, dose response, biochemical, fluorescence, single-stranded RNA substrate, uHTS hits (AID 588481); assay type: functional
# T3 sequence (P0AE70 whole entry): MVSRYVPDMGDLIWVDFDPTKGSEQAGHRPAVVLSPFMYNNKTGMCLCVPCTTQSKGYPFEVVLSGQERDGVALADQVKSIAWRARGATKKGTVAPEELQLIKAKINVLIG
# [13] = biological target: T3, Endoribonuclease toxin MazF; assay: fluorescent RNA oligo signal without MazF, dose response, counter-screen for MazEF activator project, biochemical, fluorescence, single-stranded RNase substrate (AID 588502); assay type: functional
# H9c2 = assay: cells; assay type: functional, cell-based; conditions: Rattus norvegicus, H9c2, Myocardium;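 also: confirmatory concentration-response retest of ultra-high-throughput screening hits for modulation of myocardial damage; cell death induced by hydrogen peroxide oxidative stress; compound pretreatment for 60 min then peroxide exposure for 2 h; potency is for protecting the cells against peroxide damage rather than for killing them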
# [14] = THP-1 cell cytotoxicity, dose response, cytotoxicity control for non-replicating M. tuberculosis project (AID 489025); assay type: functional
# [15] = inhibitors of firefly luciferase expression or activity, dose response, H4 neuroglioma cells, luminescence (AID 1990); assay type: functional, cell-based
# [16] = inhibitors of SNCA 5'UTR-driven reporter translation, confirmation, H4 neuroglioma cells, luminescence (AID 1988); assay type: functional, cell-based
# [17] = Luminescence Cell-Based Dose Response HTS to Identify Inhibitors of 5'UTR Stem-Loop Driven Prion Protein mRNA Translation in H4 Neuroglioblastoma Cells. [Related pubchem assays: 1827 (Project Summary), 1813 (Primary HTS)]; assay type: functional
# cells = assay type: functional
# [18] = cytotoxicity toward NIH3T3 fibroblasts, dose response, counter-screen, cell-based, ATP luminescence, mouse fibroblasts (AID 2010); assay type: functional;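 also: cells exposed to compound for about 90 hours before reading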
# [19] = inhibitors of intracellular T. cruzi replication, confirmation, NIH3T3 host cells, beta-gal luminescence (AID 2044); assay type: functional, cell-based;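 also: intracellular parasites grown in NIH/3T3 mouse fibroblasts as host cells; luminescent beta-galactosidase reporter signal from transgenic T. cruzi replicating inside host cells; inhibitors lower the luminescence signal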
# Cytochrome P450 3A4 = Cytochrome P450 3A4 (Homo sapiens, UniProt P08684);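 also: CYP3A4 tested as one member of a cytochrome P450 panel screen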
# Cytochrome P450 3A4, sequence (P08684 whole entry, the tested form may be a part): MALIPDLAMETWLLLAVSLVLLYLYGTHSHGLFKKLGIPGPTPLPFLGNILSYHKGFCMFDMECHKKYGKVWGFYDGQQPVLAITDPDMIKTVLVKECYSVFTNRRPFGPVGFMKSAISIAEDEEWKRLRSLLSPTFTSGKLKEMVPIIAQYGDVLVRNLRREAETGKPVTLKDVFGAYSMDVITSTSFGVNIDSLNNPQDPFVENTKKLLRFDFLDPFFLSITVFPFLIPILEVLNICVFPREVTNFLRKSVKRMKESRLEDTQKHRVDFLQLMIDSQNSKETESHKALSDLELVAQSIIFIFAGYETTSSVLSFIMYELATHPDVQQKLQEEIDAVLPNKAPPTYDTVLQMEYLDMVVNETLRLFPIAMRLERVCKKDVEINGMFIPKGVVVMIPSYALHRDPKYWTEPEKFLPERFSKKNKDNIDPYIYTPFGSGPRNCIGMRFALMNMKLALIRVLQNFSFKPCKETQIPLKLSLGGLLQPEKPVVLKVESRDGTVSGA
# [20] = inhibitors of HIV Env-driven cell fusion, dose response, cherry-pick (AID 652057); assay type: functional, cell-based
# [21] = off-target signal loss in HeLa-CEM21 co-culture – HeLa F-luc CTL cells, cherry-picked, counter-screen for HIV-1 Env fusion inhibitor project, dose response (AID 652040); assay type: functional, cell-based;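 also: potency for signal decrease marking cytotoxic or nonspecific inhibition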
# [22] = HEp-2 cell cytotoxicity, dose response, cytotoxicity control for RSV inhibitor project, HTS (AID 2410); assay type: functional; conditions: human respiratory syncytial virus
# [23] = ZM109 Env clade C HIV-1 fusion inhibitors, dose response, HeLa effector, CEM target cells, luciferase, cherry-pick (AID 652058); assay type: functional, cell-based
# [24] = CEM21 lymphoblast cell cytotoxicity, dose response, cytotoxicity control for viral fusion inhibitor project, CellTiter-Glo luminescence, cherry-picked (AID 652042); assay type: functional, cell-based;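 also: potency for signal decrease meaning cytotoxicity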
# [25] = biological target: T4, Heat shock factor protein 1 (Mus musculus, UniProt P38532); assay: inhibition of MG132-induced HSE-luciferase signal, confirmation, cell-based, NIH3T3, luminescence, dose retest (AID 2382); assay type: functional;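 also: NIH3T3 fibroblasts with HSF1-driven luciferase reporter stressed by proteasome inhibitor MG132; luminescence from HSF1-driven luciferase expression after 8 hours of MG132 stress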
# T4 sequence (P38532 whole entry): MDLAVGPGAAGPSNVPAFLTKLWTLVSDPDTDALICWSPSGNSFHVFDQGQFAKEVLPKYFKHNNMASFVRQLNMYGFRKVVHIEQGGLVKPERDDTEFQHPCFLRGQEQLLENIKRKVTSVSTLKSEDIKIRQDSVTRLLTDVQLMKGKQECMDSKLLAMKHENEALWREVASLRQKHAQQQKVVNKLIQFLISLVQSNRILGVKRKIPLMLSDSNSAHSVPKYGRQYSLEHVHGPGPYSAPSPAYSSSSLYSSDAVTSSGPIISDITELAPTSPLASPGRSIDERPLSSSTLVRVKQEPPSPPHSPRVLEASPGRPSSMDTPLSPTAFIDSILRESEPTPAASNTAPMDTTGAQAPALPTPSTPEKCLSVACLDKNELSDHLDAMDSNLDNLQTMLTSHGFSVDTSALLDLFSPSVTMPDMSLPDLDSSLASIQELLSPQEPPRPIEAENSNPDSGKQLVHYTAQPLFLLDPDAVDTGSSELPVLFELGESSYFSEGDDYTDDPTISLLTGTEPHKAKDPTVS
# [26] = LGR2 antagonists, dose response, cell-based, HEK293, CRE-luciferase reporter, cherry pick, set 2 (AID 743343); assay type: functional;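 also: transfected cells were stimulated with diluted bursicon conditioned medium after compound addition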
# [27] = MC4R antagonists, dose response, counter-screen for LGR2 antagonist project, cell-based, plate reader, cherry pick (AID 743444); assay type: functional;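 also: transfected HEK 293 cells stimulated with alpha-MSH peptide; potency of inhibitors of the alpha-MSH evoked signal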
# [28] = intracellular Trypanosoma cruzi inhibitors in host cells – cell-based, plate reader, cherry-pick samples, set 3, dose response (AID 651818); assay type: functional;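 also: compounds incubated with infected cells for about four days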
# [29] = P. falciparum Dd2 growth inhibitors, dose response, SYBR Green, cherry-picked samples (AID 1159567); assay type: functional, cell-based
# [30] = HepG2 cell cytotoxicity, dose response, cytotoxicity control, cherry-picked samples (AID 1159577); assay type: functional, cell-based
structure (smiles),measurement,setting,value
CCOC(=O)N1CCC(NC(=O)c2ccc(OC)c(CN3CC(=O)N4CCCC4C3=O)c2)CC1 (configuration not stated),IC50,Protein Tat,> 100 µM (inconclusive)
COc1cc(CN(C(=O)c2ccco2)c2ccc(C)cc2)ccc1O,CC50,[1],> 40 µM (active)
same,IC50,Protein Tat,9.05 µM (inconclusive)
same,IC50,[2],> 64 µM (inactive)
O=C(Nc1cccc(S(=O)(=O)Nc2ccc(Cl)cc2)c1)c1ccc(Cl)nc1,AC50,[3],0.606 µM (active)
same,AC50,INS1,3.31 µM (active)
same,AC50,[4],2.63 µM (active)
same,IC50,[5],49.5 µM (inactive)
same,AC50,[6],11.7 µM (active)
O=C(NN1C(=O)/C(=C/c2nc3ccccc3[nH]2)SC1=S)c1ccccc1Cl,EC50,[7],> 79.4 µM (not active)
same,EC50,[8],25.8 µM (inactive)
same,EC50,[9],44.5 µM (not active)
CC(C)CC(=O)NC(=S)Nc1cccc2nsnc12,EC50,[7],7.93 µM (active)
same,EC50,[8],1.81 µM (active)
same,EC50,[9],2.92 µM (active)
Cc1nc2ccc([N+](=O)[O-])cc2c(=O)n1Cc1ccc([N+](=O)[O-])cc1,IC50,Fatty acid synthase [10],9.22 µM (active)
same,IC50,Fatty acid synthase [11],8.3 µM (active)
Cc1c(CCC(=O)O)c(=O)oc2cc3oc4c(c3cc12)CCCC4,IC50,[5],> 80 µM (inactive)
Cc1ccc(S(=O)(=O)N[N-][C+]2CCC(C(C)(C)C)CC2)cc1[N+](=O)[O-],IC50,Fatty acid synthase [10],53 µM (inactive)
same,IC50,Fatty acid synthase [11],80 µM (inactive)
COC(=O)c1sc2nc(SCc3cccc(F)c3)n(N)c(=O)c2c1C,EC50,[12],> 99 µM (inactive)
same,EC50,[13],> 99 µM (inactive)
Nc1nc(-c2c[nH]c3ccccc23)cs1,EC50,[7],> 79.4 µM (not active)
same,IC50,H9c2,> 79 µM (inactive)
same,EC50,[8],> 26.5 µM (inactive)
same,EC50,[9],24.2 µM (not active)
CC(C)(C)NCc1cc(Br)ccc1OCc1cccs1,CC50,[14],> 40 µM (active)
CC(C)Sc1ncnc2c1oc1ccccc12,EC50,[7],> 79.4 µM (not active)
same,EC50,[8],39.2 µM (inactive)
same,EC50,[9],26.2 µM (not active)
COc1cc(OC)cc(-c2cc3nc(C)c(CCC(=O)NCc4ccccc4)c(C)n3n2)c1,EC50,[15],8.43 µM (active)
same,IC50,[5],> 80 µM (inactive)
same,EC50,[16],9.84 µM (active)
same,EC50,[17],9.35 µM (active)
CCCn1c(CNc2ccccc2O)nc2ccccc21,IC50,Protein Tat,> 100 µM (active)
same,IC50,cells,5.79 µM (active)
Cc1cccc(C)c1NC(=O)CCS(=O)(=O)c1cccc2nsnc12,IC50,Protein Tat,> 100 µM (active)
CCOC(=O)C1=C(C)N=C2c3ccccc3C(=O)C2C1c1ccc(Cl)cc1 (configuration not stated),EC50,[18],29.9 µM (active)
same,EC50,[19],2.06 µM (active)
same,AC50,Cytochrome P450 3A4,inconclusive
same,AC50,[20],12 µM (active)
same,AC50,[21],16.9 µM (active)
same,CC50,[22],28.7 µM (active)
same,AC50,[23],< 0.26 µM (active)
same,AC50,[24],55.8 µM (active)
CS(=O)(=O)c1ccc(C(=O)Nc2nc(-c3ccco3)c(-c3ccco3)s2)cc1,CC50,[1],> 40 µM (active)
CC(C)(C)n1ncc2c(=O)n(CC(=O)OCc3ccccc3)cnc21,EC50,[25],23.5 µM (active)
same,AC50,[26],2.51 µM (active)
same,AC50,[27],2.3 µM (active)
C=CCn1c(SCc2ccc(Br)cc2F)nc2cc(C(=O)O)ccc2c1=O,IC50,Fatty acid synthase [10],11.4 µM (active)
same,IC50,Fatty acid synthase [11],10.9 µM (active)
CC(C)C[C@@]12C(=O)N(c3ccc(Br)cc3)C(=O)N1[C@H](c1ccc(Br)cc1)[C@@H]1C(=O)N(C(C)(C)C)C(=O)[C@@H]12,IC50,Fatty acid synthase [10],15.9 µM (active)
same,IC50,Fatty acid synthase [11],14.6 µM (active)
CC(C)(C)NC(=O)/C(=C/c1ccco1)c1ccccc1,IC50,Protein Tat,> 100 µM (inconclusive)
N=c1oc2ccc(Cl)cc2cc1C(=O)NC1CCCCCC1,CC50,[14],24 µM (active)
Cc1nc2c(OCCC3CCCCC3)cccn2c1N(C)C(=O)CCC1CCCC1,AC50,[26],9.83 µM (active)
same,AC50,[27],7.16 µM (active)
C[C@H]1CN([C@@H](C)CO)C(=O)Cc2cc(NC(=O)Nc3cccc4ccccc34)ccc2O[C@H]1CN(C)Cc1ccc(C(=O)Nc2ccccc2N)cc1,AC50,[28],3.39 µM (active)
Cc1noc(C)c1S(=O)(=O)Nc1ccc2c(c1)CC(=O)N([C@@H](C)CO)C[C@@H](C)[C@@H](CN(C)Cc1ccc(C(=O)Nc3ccccc3N)cc1)O2,AC50,[28],2.56 µM (active)
C[C@@H]1CN([C@@H](C)CO)C(=O)Cc2cc(NS(=O)(=O)c3ccc(F)cc3)ccc2O[C@@H]1CN(C)S(=O)(=O)c1ccc(Cl)cc1,AC50,[28],3.3 µM (active)
C[C@H]1CN([C@@H](C)CO)C(=O)Cc2cc(NC(=O)Nc3ccc4c(c3)OCO4)ccc2O[C@@H]1CN(C)Cc1ccc(C(F)(F)F)cc1,AC50,[28],4.86 µM (active)
C[C@H](CO)N1C[C@H](C)[C@@H](CN(C)Cc2cccnc2)Oc2cc(/C=C/c3ccccc3)ccc2S1(=O)=O,AC50,[29],4.03 µM (active)
same,AC50,[30],> 39 µM (inactive)
O=C(Nc1ccc(-c2ccccc2)cc1)[C@@H]1[C@@H](CO)[C@@H]2Cn3c(cccc3=O)[C@@H]2N1CC1CCCCC1,AC50,[29],3.64 µM (active)
same,AC50,[30],> 39 µM (inactive)
CO[C@H]1CN(C)C(=O)c2cc(NC(=O)c3ccc(-c4ccccc4)cc3)ccc2OC[C@@H](C)NC[C@H]1C,AC50,[29],5.5 µM (active)
same,AC50,[30],19.8 µM (active)
